Results from PMC3810402 (Journal of the American Chemical Society, 2008).

Columns and labels:
[1] = tested on: HCT116-p53+/+ cells; assay: MTS cell viability assay, HCT116; assay type: cell-based; settings: single dose, 10 μg/mL, positive control
[2] = tested on: SW480 cells (mutant p53); assay: Tumor-killing activity by Trypan blue cell count, SW480; assay type: cell-based; settings: added daily, 10 μg/mL

## COc1ccc(C2=N[C@@H](c3ccc(Cl)cc3)[C@@H](c3ccc(Cl)cc3)N2C(=O)N2CCNC(=O)C2)c(OC(C)C)c1 [Nutlin-3]
[1]
  HCT116 cell viability (MTS): a reduction in HCT116 cell viability
[2]
  effectiveness against SW480: ineffective
